Data reported in the supplement of paper PMC10307832.

Experiments:
Test in all cases: relative viability (nuclei count vs DMSO), 5 days (fraction); higher = more cells survive
[1] = compound: C1CNCCC1C2=CC(=NN2)C3=CC=NC=C3 + Cc1nc(Nc2ncc(C(=O)Nc3c(C)cccc3Cl)s2)cc(N2CCN(CCO)CC2)n1 [Dasatinib] (partner 0.075 µM)
How it was run: (§1)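 Medians of duplicate plates are given as relative viability. That measure is the nuclei count in treated wells divided by the count in vehicle wells. Counts were taken on 4× images of lung cancer cell lines in 1536-well plates, 5 days after pin-tool dosing the day after seeding with one drug alone or a fixed anchor-drug dose plus five library-drug doses (not always all listed) in √10 steps.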

[2] = compound: O[C@H]1CC[C@H](Nc2ncc3nc(Nc4c(F)cc(F)cc4F)n([C@H]4CCOC4)c3n2)CC1 [Tanzisertib] + O=C(c1cc(Cc2n[nH]c(=O)c3ccccc23)ccc1F)N1CCN(C(=O)C2CC2)CC1 [Olaparib] (partner 8 µM)
How it was run: as §1

[3] = compound: C1CNCCC1C2=CC(=NN2)C3=CC=NC=C3 + NC(=O)Nc1cc(-c2cccc(F)c2)sc1C(=O)N[C@H]1CCCNC1 [AZD7762] (partner 0.2 µM)
How it was run: as §1

[4] = compound: C[C@@H](N)c1ccc(C(=O)Nc2ccnc3[nH]ccc23)cc1 + NC(=O)Nc1cc(-c2cccc(F)c2)sc1C(=O)N[C@H]1CCCNC1 [AZD7762] (partner 0.2 µM)
How it was run: as §1

| Cell Line | relative viability ([1]; first compound 0.08 µM) | relative viability ([1]; first compound 0.8 µM) | relative viability ([1]; first compound 2.53 µM) | relative viability ([1]; first compound 8 µM) | relative viability ([2]; first compound 0.08 µM) | relative viability ([2]; first compound 0.253 µM) | relative viability ([2]; first compound 0.8 µM) | relative viability ([2]; first compound 2.53 µM) | relative viability ([2]; first compound 8 µM) | relative viability ([3]; first compound 0.08 µM) | relative viability ([3]; first compound 0.8 µM) | relative viability ([3]; first compound 2.53 µM) | relative viability ([3]; first compound 8 µM) | relative viability ([4]; first compound 0.04 µM) | relative viability ([4]; first compound 0.1265 µM) | relative viability ([4]; first compound 0.4 µM) | relative viability ([4]; first compound 1.265 µM) | relative viability ([4]; first compound 4 µM) |
| --- | --- | --- | --- | --- | --- | --- | --- | --- | --- | --- | --- | --- | --- | --- | --- | --- | --- | --- |
| NCI-H2228 | 0.594 | 0.572 | 0.531 | 0.484 | 0.579 | 0.506 | 0.556 | 0.788 | 0.496 |  |  |  |  |  |  |  |  |  |
| CAL-12T | 0.49 | 0.49 | 0.625 | 0.475 | 0.731 | 0.767 | 0.567 | 0.641 | 0.844 | 0.701 | 0.669 | 0.601 | 0.66 | 0.625 | 0.682 | 0.606 | 0.784 | 0.803 |
| A-427 | 0.639 | 0.751 | 0.731 | 0.703 | 0.783 | 0.66 | 0.811 | 0.877 | 0.782 | 0.752 | 0.802 | 0.92 | 0.774 | 0.708 | 0.751 | 0.779 | 0.806 | 0.665 |
| HARA | 0.217 | 0.3 | 0.196 | 0.187 | 0.876 | 0.844 | 0.715 | 1.28 | 0.849 | 0.328 | 0.306 | 0.295 | 0.258 | 0.275 | 0.266 | 0.3 | 0.965 | 0.311 |
| NCI-H1793 | 0.335 | 0.357 | 0.352 | 0.404 | 0.876 | 0.807 | 0.873 | 0.77 | 0.592 | 0.369 |  | 0.615 | 0.61 | 0.409 | 0.62 | 0.442 |  | 0.73 |
| NCI-H1623 | 0.574 | 0.38 | 0.557 | 0.563 |  |  |  |  |  |  |  |  |  |  |  |  |  |  |
| NCI-H2009 | 0.323 | 0.265 | 0.318 | 0.31 | 0.634 | 0.734 | 0.743 | 0.73 | 0.752 |  |  |  |  |  |  |  |  |  |
| ABC-1 | 0.55 | 0.563 | 0.652 | 0.497 | 0.838 | 0.757 | 0.634 | 0.701 | 0.792 | 0.851 | 0.519 | 0.915 | 1.02 |  | 0.861 | 0.808 |  | 0.554 |
| IA-LM |  |  |  |  | 0.738 | 0.765 | 0.754 | 0.859 | 0.789 |  |  |  |  |  |  |  |  |  |
| NCI-H322M | 0.24 | 0.228 | 0.247 | 0.282 | 0.805 | 0.836 | 0.762 | 0.89 | 0.726 | 0.582 | 0.597 | 0.627 | 0.622 | 0.544 | 0.66 | 0.647 | 0.837 | 0.777 |
| NCI-H1792 | 0.774 | 0.836 | 0.781 | 0.854 | 0.813 | 0.572 | 0.498 | 0.345 | 0.436 | 0.616 | 0.675 | 0.632 | 0.717 | 0.564 | 0.534 | 0.69 | 0.72 | 0.578 |
